Experimental data: PubChem BioAssay (NCI)
Values joined by “and” are separate entries in the source; they are usually repeats but may differ in a detail not shown here. Identical values can stand only once.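 Dose response: 5 concentrations. Exposure: 48 h. Format: 96-well plates. Endpoint: linear interpolation; highest concentration if not reached. GI50: concentration for 50% inhibition of growth. TGI marks complete inhibition of growth.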 *1 amine or outer side, *2 acyl side, *3 side chain or, on linkers, in order; H or OH if unused. Where a SMILES comes first, the peptide text is derived from it. Bridges are numbered along the chain shown (N, C = ends). [ ]: non-standard residue; d: D form. The star is where a group is joined. Phe(3-Me) = Cc1cccc(C[C@H](N)C(=O)O)c1; NH(4-Cl-2-F-phenyl) = Fc1cc(Cl)ccc1N*; Pro(4R-Me) = C[C@H]1CN[C@H](C(=O)O)C1; Propanoyl(3-NMe2) = CN(C)CCC(=O)*; Hyp = O=C(O)[C@@H]1C[C@@H](O)CN1; aThr = C[C@H](O)[C@H](N)C(=O)O; Pip = O=C(O)[C@@H]1CCCCN1; CO = O=C([*:1])[*:2]

tested on: MDA-MB-468 breast; assay: NCI-60 cell line screen, 48 h

Q: With CC(=O)Nc1sc2c(c1-c1nc3ccccc3s1)CNC2 as the compound, how does the GI50 read?
A: 1.88 µM

Q: And the TGI?
A: 7.24 µM

Q: Which results are given for COc1ccc(-c2nc(C(Cl)Cl)nc3cc(-c4ccccc4)nn23)cc1?
A: GI50: 1.09 µM; TGI: 3.1 µM

Q: Which results are given for CC[C@@]1(O)C(=O)OCc2c1cc1n(c2=O)Cc2c-1nc1ccccc1c2/C=N/OC(C)(C)C?
A: GI50: < 0.01 µM; TGI: 0.0592 µM

Q: What does the source list for Nc1c(C(=O)Nc2ccccc2)sc2nc3c(cc12)CCCC3?
A: GI50: 0.317 µM; TGI: 47.9 µM

Q: What does the source list for O=C(CCl)Nc1ccc2c(c1)C(=O)c1ccc(NC(=O)CCl)cc1C2=O?
A: GI50: 0.425 µM; TGI: 1.55 µM

Q: Which GI50 does the source give for C[C@]12CC[C@H]3[C@@H](C[C@@H]4N=C(c5ccc(O)cc5)S[C@@]45C[C@H](O)CC[C@]35C)[C@@H]1CC[C@@H]2O here?
A: 5.13 µM

Q: And the TGI?
A: 41.6 µM

Q: What does the source list for O=C(Nc1ccc(Br)cc1F)c1cc(Br)ccc1O?
A: GI50: 0.873 µM; TGI: 5.42 µM

Q: CCc1ccc(Nc2cc(C)nc3nc(C)nn23)cc1 was tested. Which GI50 did it give?
A: 28.6 µM

Q: What about the TGI of the same compound?
A: > 100 µM

Q: For CC/C=C\C/C=C\C[C@H]1C/C=C2/C(=O)C=C[C@H]2C/C=C\CCC(=O)O1, which GI50 is on record?
A: 1.86 µM

Q: And the TGI?
A: 5 µM

Q: With Nc1nc2c(c3cnccc13)C(c1cccc(Cl)c1)Cc1cnccc1-2 (configuration not stated) as the compound, how does the GI50 read?
A: 0.21 µM

Q: And the TGI?
A: 0.576 µM

Q: Which GI50 does the source give for O=C1c2cccnc2C(=O)c2c1c(C(=O)OCCN1CCOCC1)c1ccccn21 here?
A: 1.51 µM

Q: And the TGI?
A: 6.74 µM

Q: Which results are given for CCN1CCN(C(=O)[C@]23CCC(C)(C)C[C@@H]2C2=CC[C@@H]4[C@@]5(C)C/C(=C/c6cccnc6)C(=O)C(C)(C)[C@@H]5CC[C@@]4(C)[C@]2(C)CC3)CC1?
A: GI50: 1.28 µM; TGI: 3.94 µM

Q: How did the GI50 turn out when O=C(O)c1cc(Sc2ccc([N+](=O)[O-])c(C(=O)O)c2)ccc1[N+](=O)[O-] was run?
A: > 100 µM

Q: What about the TGI of the same compound?
A: > 100 µM

Q: For CC(C)Oc1ccc(C(=O)N[C@H](CNC(=O)CN(C)C)Cc2ccc(-c3cn4cccc([C@H](C)O)c4n3)cc2)cc1Cl, which GI50 is on record?
A: 0.0389 µM

Q: And the TGI?
A: 17.5 µM

Q: Which GI50 does the source give for CC1Cc2cc(O)ccc2C2[C@@H]1C1CC[C@H](O)[C@@]1(C)C[C@@H]2O[N+](=O)[O-] (some centres not stated) here?
A: 27.6 µM

Q: What about the TGI of the same compound?
A: > 100 µM

Q: For CC(C)[C@@H]1CC[C@@H]2[C@@H]1[C@H](OC(=O)/C=C/c1ccccc1)[C@]1(C(C)C)C[C@@H](OC(=O)CO)[C@@]2(C)O1, which GI50 is on record?
A: 6.07 µM

Q: What about the TGI of the same compound?
A: 12.6 µM

Q: For COc1ccc(Cn2c(Br)c3c(c2-c2cc(OC)c(OC)c(OC)c2)CCc2sc(NC(C)=O)nc2-3)cc1, which GI50 is on record?
A: 4.86 µM

Q: What about the TGI of the same compound?
A: 46.3 µM

Q: How did the GI50 turn out when O=C(CN1CCN(c2ccc(Cl)cc2)CC1)N1CCN(c2nnc(-c3ccccc3)c(-c3ccccc3)n2)CC1 was run?
A: 1.83 µM

Q: And the TGI?
A: 53.3 µM

Q: Which GI50 does the source give for CSc1nc2c(c(=O)[nH]1)C(c1ccc(Cl)cc1)C1=C(N2)/C(=C/c2ccc(Cl)cc2)CNC1 (configuration not stated) here?
A: 1.8 µM

Q: What about the TGI of the same compound?
A: 4.02 µM

Q: With CC[C@]12CCCN3CC[C@]4(C(=C(C(=O)OC)C1)Nc1ccccc14)[C@@H]32 as the compound, how does the GI50 read?
A: 11.7 µM

Q: And the TGI?
A: 28 µM

Q: With COc1cc(NC(N)=NCCC(C)(C)c2ccc(C(F)(F)F)cc2)ncc1C#N as the compound, how does the GI50 read?
A: 1.24 µM

Q: And the TGI?
A: 2.8 µM

Q: Which results are given for O=C(/C=C/c1cccnc1)c1ccccc1O?
A: GI50: 15.1 µM; TGI: 37.3 µM

Q: With Cc1cccc(C[C@H](NC(=O)Nc2ccc(Cl)cc2F)C(=O)N[C@@H]2C(=O)N3C[C@H](OC(=O)CCN(C)C)C[C@H]3C(=O)N3CCCC[C@H]3C(=O)N[C@@H](C)C(=O)N3C[C@H](C)C[C@H]3C(=O)O[C@H]2C)c1 ({NH(4-Cl-2-F-phenyl)-CO}-[Phe(3-Me)][aThr][Hyp](Propanoyl(3-NMe2))[Pip]A[Pro(4R-Me)]; ester 2-C) as the compound, how does the GI50 read?
A: 0.255 µM

Q: And the TGI?
A: 0.894 µM

Q: What does the source list for COc1cc2c3c(n(CCCN4CCCC4)c(=O)c2cc1OC)-c1cc2c(cc1C3=O)OCO2?
A: GI50: 1.57 µM; TGI: 3.17 µM

Q: C/C(=N\NC(=O)c1ccncc1)c1ccc(O)cc1O was tested. Which GI50 did it give?
A: 4.16 µM

Q: And the TGI?
A: 50.8 µM

Q: For NC[C@@](O)(c1ccc(Cl)cc1)c1ccc(-c2cn[nH]c2)cc1, which GI50 is on record?
A: 1.08 µM and 0.54 µM

Q: What about the TGI of the same compound?
A: 3.79 µM and 2.01 µM

Q: C=C1N(C)c2ccc(Cl)cc2C1(C)C was tested. Which GI50 did it give?
A: 2.64 µM

Q: And the TGI?
A: 15.6 µM

Q: O=S(=O)(NCCCNc1cc(-c2cn(-c3ccccc3)nc2-c2cccc(O)c2)ccn1)c1ccc(Cl)cc1 was tested. Which GI50 did it give?
A: 1.16 µM

Q: And the TGI?
A: 4.56 µM

Q: How did the GI50 turn out when COc1ccc(/C=C/C(=O)c2ccc(Nc3ccnc4cc(Cl)ccc34)cc2)cc1 was run?
A: > 100 µM

Q: What about the TGI of the same compound?
A: > 100 µM

Q: COc1cc(OC)cc(-c2cncn2-c2ccc(-c3nc4cc(OC)c(OC)c(OC)c4s3)cc2)c1 was tested. Which GI50 did it give?
A: 10.7 µM

Q: And the TGI?
A: > 100 µM

Q: Which results are given for C[C@@]1(N2C(=O)OC[C@@H]2c2ccccc2)C(=O)N([C@H](CC(=O)N2CCC(N3CCCCC3)CC2)C(=O)NCc2cccc(C(F)(F)F)c2)[C@@H]1/C=C/c1ccccc1?
A: GI50: 1.9 µM; TGI: 3.77 µM

Q: With COc1ccc(-c2nocc2-c2cc(OC)c(OC)c(OC)c2)cc1 as the compound, how does the GI50 read?
A: 0.105 µM

Q: And the TGI?
A: 18.6 µM

Q: Which GI50 does the source give for COc1cc(C2C(C#N)=C(N)Oc3cc(O)ccc32)cc(OC)c1OC (configuration not stated) here?
A: 0.28 µM

Q: And the TGI?
A: 1.14 µM

Q: Which results are given for CCOC(=O)Nc1cccc(-n2cnc3cc(-c4ccc(O)cc4)ccc32)c1?
A: GI50: 0.243 µM; TGI: 10.6 µM

Q: Which results are given for COc1cc2c3c(c4c5ccccc5[nH]c4c2c(OC)c1OC)C(=O)N(CCN1CCCCC1)C3=O?
A: GI50: 1.6 µM; TGI: 19.2 µM

Q: How did the GI50 turn out when CCCN1CCN(c2ccc3nc(-c4ccc5nc(-c6ccc(OCC)c(OCC)c6)[nH]c5c4)[nH]c3c2)CC1 was run?
A: 0.369 µM

Q: And the TGI?
A: 1.3 µM

Q: CN1CCCN(C(c2ccccc2)c2ccc(Br)cc2)CC1 (configuration not stated) was tested. Which GI50 did it give?
A: 1.93 µM

Q: What about the TGI of the same compound?
A: 6.53 µM

Q: N=c1ccn2c(n1)O[C@@H]1[C@@H](O)[C@H](CO)O[C@@H]12 was tested. Which GI50 did it give?
A: 48.4 µM

Q: And the TGI?
A: > 100 µM

Q: Which GI50 does the source give for COc1ccc(Nc2ncccc2C(=O)NCc2cn(Cc3cccc(Oc4ccccc4)c3)nn2)cc1 here?
A: 2.32 µM

Q: What about the TGI of the same compound?
A: 6.95 µM

Q: What does the source list for Cc1ccccc1/C=C1\CN(C(=O)OC(C)(C)C)C/C(=C\c2ccccc2C)C1=O?
A: GI50: 1.83 µM; TGI: 4.45 µM

Q: Cc1ccc(NC(=O)c2nc(S(C)=O)oc2-c2ccc(F)cc2)cc1Nc1nccc(-c2cccnc2)n1 (configuration not stated) was tested. Which GI50 did it give?
A: 2.14 µM

Q: And the TGI?
A: 4.65 µM
